Results published in PMC7539557 (ACS infectious diseases, 2020).
Several values for one entry are separate records, joined by “and”; a condition that tells them apart may be missing. Equal entries are not always repeated. Entries after “also recorded” stand apart in the source; their conditions may differ. Where two headings read alike, the source gives them in different places.

Columns and labels:
MHV-A59 [1] = type: cell-based, Murine hepatitis virus; conditions: for IC50: DFMO pretreatment 4 days, CPX, DEF, GC7 24h
MHV [2] = experiment: Direct incubation of MHV with compound, then titering; parameters: species or system Murine hepatitis virus; conditions: 10 μM for 24h, then titered
SARS-CoV-2 = type: cell-based; conditions: 5 mM DFMO, Vero-E6, MOI 0.1, 24 hpi
MHV-A59 [3] = type: cell-based, Murine hepatitis virus
MHV-A59 [4] = experiment: Plaque size measurement with DFMO applied at time of infection; type: cell-based, Murine hepatitis virus
MHV [5] = experiment: MHV attachment assays; type: cell-based, Murine hepatitis virus
HCoV-NL63 = HCoV-NL63 qPCR-based attachment assay on Vero-E6 cells; type: cell-based; conditions: DFMO-treated Vero-E6 cells
[6] = tested on: SARS-CoV-2 pseudoparticles; type: cell-based; conditions: DFMO-treated Vero-E6 cells
cellular polyamines = experiment: Thin-layer chromatography of cell-associated polyamines; type: cell-based
MERS-CoV = conditions: in vitro, dose of 500 μM; cited from earlier work

NCCCCNCCCN [spermidine]
effect of exogenous polyamine on MHV titers (MHV-A59 [1]): modestly reduced viral titers; also recorded: does not inhibit or restrict virus replication | rescue of MHV replication in DFMO-treated cells (MHV-A59 [1]): rescued virus replication to untreated levels | infectivity of MHV after direct incubation (MHV [2]): titers were unchanged

NCCCC(N)(C(=O)O)C(F)F (stereo not shown) [DFMO, difluoromethylornithine]
reduction of SARS-CoV-2 genomes (SARS-CoV-2): greater than 50 fold | MHV genome levels in supernatant (qPCR) (MHV-A59 [1]): reduced genome levels | MHV production after repeated versus single dosing (MHV-A59 [1]): repeated dosing is as effective as a single drug treatment | MHV titers over several rounds of replication (MHV-A59 [1]): reduced viral titers compared to no treatment group up to 72 h | antiviral effect after drug removal (MHV-A59 [1]): completely reversed | specific infectivity (genomes per PFU) (MHV-A59 [1]): increased the ratio of genomes to titer | IC50 (MHV-A59 [1]): 380 µM | IC50 (MHV-A59 [3]): ~7 µM and 7 µM | infectivity of MHV after direct incubation (MHV [2]): titers were unchanged | plaque size (MHV-A59 [4]; BHK-R cells, DFMO in overlay media at time of infection): no changes in plaque size | plaque area (MHV-A59 [4]; HeLa-R cells, DFMO at time of infection): small, though statistically insignificant change | attachment and plaque formation (MHV [5]): significantly inhibited | bound viral genomes (qRT-PCR) (MHV [5]): significantly reduced | HCoV-NL63 attachment (HCoV-NL63): attachment was sensitive to DFMO treatment | cellular attachment of SARS-CoV-2 pseudoparticles [6]: reduction in cellular attachment of SARS-CoV-2 pseudoparticles in a dose-dependent manner | polyamine levels by TLC (cellular polyamines; BHK-R cells): depleted polyamines | polyamine levels by TLC (cellular polyamines; HeLa-R cells, DENSpm at 10 μM): reduced polyamines | polyamine levels by TLC (cellular polyamines; Vero-E6 cells, 750 μM to 5 mM DFMO): successfully depleted polyamines | toxicity (HeLa-R cells): not toxic to these cells | sensitivity of MERS-CoV (MERS-CoV): sensitive

NCCCNCCCCNCCCN [spermine]
effect of exogenous polyamine on MHV titers (MHV-A59 [1]): modestly reduced viral titers; also recorded: reduces virus replication | rescue of MHV replication in DFMO-treated cells (MHV-A59 [1]): rescued virus replication to untreated levels | infectivity of MHV after direct incubation (MHV [2]): titers were unchanged | cytotoxicity (BHK-R cells): significant cytotoxicity

NCCCCCCCN=C(N)N [GC7]
MHV replication (MHV-A59 [1]): significantly reduced MHV replication in a dose-dependent manner | IC50 (MHV-A59 [1]): 7.4 µM | cytotoxicity (BHK-R cells): cytotoxicity was minimal

Cc1c(O)c(=O)ccn1C [DEF, deferiprone]
MHV replication (MHV-A59 [1]): significantly reduced MHV replication in a dose-dependent manner | cytotoxicity (BHK-R cells): cytotoxicity was minimal

Cc1cc(C2CCCCC2)n(O)c(=O)c1 [CPX, ciclopirox]
MHV replication (MHV-A59 [1]): significantly reduced MHV replication in a dose-dependent manner | cytotoxicity (BHK-R cells): cytotoxicity was minimal

NCCCCN [putrescine]
effect of exogenous polyamine on MHV titers (MHV-A59 [1]): modestly reduced viral titers | rescue of MHV replication in DFMO-treated cells (MHV-A59 [1]): rescued virus replication to untreated levels | infectivity of MHV after direct incubation (MHV [2]): titers were unchanged
